According to patent US8026275B2 (priority 2005, dated 2011):
Read-outs that look alike come from different tables or passages of the source.

Legend:
[1] = Total Antioxidant Status Assay (CalBiochem), inhibition of ABTS oxidation; format: biochemical; conditions: read-out: Antioxidant activity (IC50, 50% suppression of ABTS+ absorbance at 600 nm)
Text: The assay used relies on the ability of antioxidants in the sample to inhibit the oxidation of ABTS (2,2'-Azino-di-[3-ethylbenzthiazoline sulphonate]) to ABTS+ by metmyoglobin (a peroxidase). The amount of ABTS+ produced was monitored at 600 nm. Under the reaction conditions used, the antioxidants in the sample suppress the absorbance at 600 nm to a degree which is proportional to their concentration and antioxidant activity.

GABAA Cl channel [2] = target: T1, GABAA Cl channel; format: binding, bovine; conditions: for Kd: read-out: binding constant (KD), inhibition of TBOB binding to GABAA receptor
T1 construct: other: determined graphically, increasing concentr; other: 10^-4M, bovine hippocampus

rats [3] = assay: Anesthetic activity in vivo, time to recovery of righting reflex; set-up: species or system rat; conditions: for toxicity compared with 2,6-diisopropyl phenol: equimolar dose; for duration of anesthesia (time to recovery of righting reflex): tail vein injection in DMSO, 28 μmol/kg (5 mg/kg for 2,6-diisopropyl phenol)
Method: Drugs solubilized in DMSO were administered to rats by tail vein injection (N=5 rats per group). […] GABAA binding activity in vitro was performed as described in Example 27.

rats [4] = assay: Dose escalation in rats: mortality and anesthetic activity; conditions: rats; for LD10: in DMSO, calculated from mortality curves
Method: (§1) Drugs solubilized in DMSO were administered to rats (5 rats per group). Anesthetic activity in vivo was determined as time to recovery of righting reflex. […] In order to adjust for the differences in molecular weight between the two compounds, umol/kg dose was used.

[5] = as above; conditions: rat, in vivo
Method: as §1

[6] = rat, intravenously via jugular vein cannula, in DMSO, blood
in vivo [7] = conditions: rat, plasma, intravenous, 5 mg/kg
GABAA Cl channel [8] = format: binding, bovine; conditions: read-out: IC50 of binding to GABA Cl channel
GABAA agonist site = conditions: 10^-4M, bovine hippocampus
in vivo [9] = conditions: rat
Text: Time plasma concentration curve was processed using a two compartment PK model supported by WinNonlin.

GABAA alpha-1 site = conditions: 10^-4M, bovine hippocampus
GABAA alpha-6 site = conditions: 10^-4M, bovine hippocampus
[10] = dissolved in DMSO
GABAA alpha 2 site = conditions: 10^-4M, bovine hippocampus
[11] = determined graphically, increasing concentrations
[12] = 5 mg/kg intravenously in DMSO, plasma

## CC(C)c1cc(C(=O)c2ccc(F)cc2)cc(C(C)C)c1O [Compound 1, (4-fluorophenyl)-(4-hydroxy-3,5-diisopropylphenyl)methanone]
[1]
  IC50: > 1000 µM

## CC(C)c1cc(C(=O)c2ccc([N+](=O)[O-])cc2)cc(C(C)C)c1O [Compound 3, (4-hydroxy-3,5-diisopropylphenyl)-(4-nitrophenyl)methanone]
[1]
  IC50: > 1000 µM

## CC(C)c1cc(C(O)c2ccc(C(F)(F)F)cc2)cc(C(C)C)c1O (stereo not drawn) [Compound 20, 4-((4-(trifluoromethyl)phenyl)(hydroxy)methyl)-2,6-diisopropylphenol]
[1]
  IC50: 28 µM

## CC(C)c1cc(C(=O)c2ccc(C(F)(F)F)cc2)cc(C(C)C)c1O [Compound 2]
GABAA Cl channel [2]; [11]
  Kd: 0.42 µM
Rats [3]
  toxicity compared with 2,6-diisopropyl phenol: did not have toxicity above that of 2,6-diisopropyl phenol
  duration of anesthesia (time to recovery of righting reflex): 75 to 92 min
[1]
  IC50: > 1000 µM
Rats [4]
  time asleep at LD10: 1.73 h
  LD10: 29 µmol/kg
Rats [4]; dose escalation
  anesthetic activity compared with 2,6-diisopropyl phenol: better anesthetic activity than 2,6-diisopropyl phenol at all dose levels
[5]
  LD50: 62.1 µmol/kg
[6]
  AUC: 127 µg·h/mL
  CL: 0.08 L/h/kg
  Cmax: 283 µg/mL
  Vc (volume of the central compartment): 0.04 L/kg
  Vss (volume distribution at steady state): 5.3 L/kg
  Vt (volume of the tissue compartment): 5.2 L/kg

## CC(C)c1cc(C(=O)c2cc(F)cc(C(F)(F)F)c2)cc(C(C)C)c1O [Compound 6, (3-fluoro-5-(trifluoromethyl)phenyl)-(4-hydroxy-3,5-diisopropylphenyl)methanone]
[1]
  IC50: > 1000 µM

## CC(C)c1cc(C(=O)c2cccc(C(F)(F)F)c2)cc(C(C)C)c1O [Compound 5, (3-(trifluoromethyl)phenyl)-(4-hydroxy-3,5-diisopropylphenyl)methanone]
[1]
  IC50: > 1000 µM

## CC(C)c1cc(C(=O)c2ccc(C(C)(C)C)cc2)cc(C(C)C)c1O [Compound 9, (4-tert-butylphenyl)-(4-hydroxy-3,5-diisopropylphenyl)methanone]
[1]
  IC50: > 1000 µM

## CC(C)c1cc(C(=O)c2ccc(C(F)(F)F)c(F)c2)cc(C(C)C)c1O [Compound 4, (3-fluoro-4-(trifluoromethyl)phenyl)-(4-hydroxy-3,5-diisopropylphenyl)methanone]
[1]
  IC50: > 1000 µM

## CC(C)c1cc(C(=O)c2ccc(I)cc2)cc(C(C)C)c1O [Compound 11, (4-hydroxy-3,5-diisopropylphenyl)-(4-iodophenyl)methanone]
GABAA Cl channel [2]; [11]
  Kd: 0.36 µM
Rats [3]
  toxicity compared with 2,6-diisopropyl phenol: did not have toxicity above that of 2,6-diisopropyl phenol
  duration of anesthesia (time to recovery of righting reflex): 86 min
[1]
  IC50: > 1000 µM

## CC(C)c1cccc(C(C)C)c1O [2,6-diisopropyl phenol]
In vivo [7]
  concentration at 20 min: 0.75 µM
GABAA Cl channel [2]
  inhibition of TBOB binding to the chloride channel: inhibited the binding of TBOB
  Kd: 5.74 µM
GABAA Cl channel [8]
  IC50: 96 µM
GABAA agonist site
  inhibition of the agonist site: No significant inhibition
In vivo [9]; [12]
  V1: 15 L/kg
  V2: 58 L/kg
In vivo [9]; in vivo, iv, 5 mg/kg
  AUC: 0.4 µg·h/mL
  Cmax: 0.3 µg/mL
  Vd: 73 L/kg
  clearance: 12 L/h/kg
Rats [3]
  duration of anesthesia (time to recovery of righting reflex): 20 min
GABAA alpha-1 site
  inhibition of the alpha 1 site: No significant inhibition
GABAA alpha-6 site
  inhibition of the alpha 6 site: No significant inhibition
[10]
  time the rat was put to sleep: 20 min
Rats [4]
  time asleep at LD10: 0.35 h
  LD10: 28 µmol/kg
[5]
  LD50: 45.3 µmol/kg
[6]
  AUC: 0.4 µg·h/mL
  CL: 11.7 L/h/kg
  Cmax: 0.3 µg/mL
  Vc (volume of the central compartment): 15.0 L/kg
  Vt (volume of the tissue compartment): 58.0 L/kg
GABAA alpha 2 site
  inhibition of the alpha 2 site: No significant inhibition

## CC(C)c1cc(C(=O)c2ccc(C(F)(F)F)nc2)cc(C(C)C)c1O [Compound 14, (6-(trifluoromethyl)pyridin-3-yl)-(4-hydroxy-3,5-diisopropylphenyl)methanone]
[1]
  IC50: > 1000 µM

## CC(C)c1cc(C(=O)c2ccc(C#N)cc2)cc(C(C)C)c1O [Compound 13, (4-cyanophenyl)-(4-hydroxy-3,5-diisopropylphenyl)methanone]
[1]
  IC50: > 1000 µM
